Assay results from PubChem BioAssay AID1259407 (Chemical Carcinogenesis Research Information System (CCRIS), 2018).
Activity calls are given as the source filed them. How the calls were made is not given here.

Test system: CCRIS mutagenicity, Ames/micronucleus/aberration tests
Assay: CCRIS mutagenicity studies
[1] = Test System: AMES SALMONELLA TYPHIMURIUM, Strain/Indicator: TA98, Metabolic Activation: NONE, Method: STANDARD PLATE
[2] = Test System: AMES SALMONELLA TYPHIMURIUM, Strain/Indicator: TA100, Metabolic Activation: NONE, Method: STANDARD PLATE
[3] = Test System: AMES SALMONELLA TYPHIMURIUM, Strain/Indicator: TA98, Metabolic Activation: HAMSTER, LIVER, S-9, Method: PREINCUBATION (PRIVAL METHOD)

CC/C=C/C=C/C=C/C=C/C=O
mutagenic call [1]: inactive; negative
mutagenic call [2]: inactive; negative
mutagenic call (Test System: AMES SALMONELLA TYPHIMURIUM, Strain/Indicator: TA104, Metabolic Activation: NONE, Method: STANDARD PLATE): inactive; negative

O=C1NC(=O)[C@H]2[C@H]3C=C[C@@H]([C@@H]12)[C@@H]1[C@H]2C(=O)NC(=O)[C@H]2[C@H]31
mutagenic call (Test System: MOUSE LYMPHOMA, Strain/Indicator: L5178Y (TK+/TK-), Metabolic Activation: NONE, Method: SUSPENSION/PLATE): active; positive. reevaluation of results: inconclusive
mutagenic call (Test System: MOUSE LYMPHOMA, Strain/Indicator: L5178Y (TK+/TK-), Metabolic Activation: RAT, LIVER, S-9, AROCLOR 1254, Method: SUSPENSION/PLATE): active; positive. reevaluation of results: positive

Nc1nc(OCc2ccccc2)c2[nH]cnc2n1
mutagenic call (Test System: Mouse lymphoma, Strain/Indicator: L5178Y (tk+/tk-), Metabolic Activation: None, Method: Suspension/plate): active; positive
mutagenic call (Test System: Mouse lymphoma, Strain/Indicator: L5178Y (tk+/tk-), Metabolic Activation: Rat, Liver, S-9, Aroclor 1254, Method: Suspension/plate): inconclusive

Cc1ncc([N+](=O)[O-])n1CC(O)CCl (configuration not stated)
mutagenic call (End Point: IN VITRO CHROMOSOMAL ABERRATIONS, Test System: HUMAN LYMPHOCYTES, Metabolic Activation: NONE): active; positive (structural changes)

Nc1ccc(-c2ccc(N)cc2Cl)c(Cl)c1
mutagenic call [3]: active; positive
mutagenic call (Test System: AMES SALMONELLA TYPHIMURIUM, Strain/Indicator: TA98, Metabolic Activation: NONE, Method: PREINCUBATION (PRIVAL METHOD)): active; positive
mutagenic call (Test System: UDS HUMAN CELLS, Strain/Indicator: THY INCORP (NON-S-PHASE), Metabolic Activation: RAT, LIVER, S-9, PHENOBARBITAL, Method: LIQUID SCINTILLATION COUNTING): active; positive

O=[N+]([O-])c1cccc(CO/N=C/c2nc3cc([N+](=O)[O-])ccc3n2Cc2ccc(Cl)cc2)c1
mutagenic call [1]: inactive; negative
mutagenic call (Test System: AMES SALMONELLA TYPHIMURIUM, Strain/Indicator: TA98, Metabolic Activation: RAT, LIVER, S-9, PHENOBARBITAL AND BETA-NAPHTHOFLAVONE, Method: STANDARD PLATE): inactive; negative
mutagenic call [2]: inactive; negative
mutagenic call (Test System: AMES SALMONELLA TYPHIMURIUM, Strain/Indicator: TA100, Metabolic Activation: RAT, LIVER, S-9, PHENOBARBITAL AND BETA-NAPHTHOFLAVONE, Method: STANDARD PLATE): inactive; negative

CCCCCCCCCCCC[N+](C)(C)COCCCCCCCCC
mutagenic call (Test System: BACILLUS SUBTILIS, Strain/Indicator: H17/REC, Metabolic Activation: NONE, Method: STANDARD PLATE): inactive; negative
mutagenic call (Test System: BACILLUS SUBTILIS, Strain/Indicator: M45, Metabolic Activation: NONE, Method: STANDARD PLATE): inactive; negative

Cc1cccc(C)c1NC(=O)CN1CCCC1=O
mutagenic call (Test System: AMES SALMONELLA TYPHIMURIUM, Strain/Indicator: TA98, Metabolic Activation: NONE, Method: PREINCUBATION): inactive; negative
mutagenic call (Test System: AMES SALMONELLA TYPHIMURIUM, Strain/Indicator: TA98, Metabolic Activation: RAT, LIVER, S-9, SODIUM PHENOBARBITAL AND 5,6-BENZOFLAVONE, Method: PREINCUBATION): inactive; negative
mutagenic call (Test System: AMES SALMONELLA TYPHIMURIUM, Strain/Indicator: TA100, Metabolic Activation: NONE, Method: PREINCUBATION): inactive; negative
mutagenic call (Test System: AMES SALMONELLA TYPHIMURIUM, Strain/Indicator: TA100, Metabolic Activation: RAT, LIVER, S-9, SODIUM PHENOBARBITAL AND 5,6-BENZOFLAVONE, Method: PREINCUBATION): inactive; negative
mutagenic call (Test System: AMES SALMONELLA TYPHIMURIUM, Strain/Indicator: TA1535, Metabolic Activation: NONE, Method: PREINCUBATION): inactive; negative
mutagenic call (Test System: AMES SALMONELLA TYPHIMURIUM, Strain/Indicator: TA1535, Metabolic Activation: RAT, LIVER, S-9, SODIUM PHENOBARBITAL AND 5,6-BENZOFLAVONE, Method: PREINCUBATION): inactive; negative
mutagenic call (Test System: AMES SALMONELLA TYPHIMURIUM, Strain/Indicator: TA1537, Metabolic Activation: NONE, Method: PREINCUBATION): inactive; negative
mutagenic call (Test System: AMES SALMONELLA TYPHIMURIUM, Strain/Indicator: TA1537, Metabolic Activation: RAT, LIVER, S-9, SODIUM PHENOBARBITAL AND 5,6-BENZOFLAVONE, Method: PREINCUBATION): inactive; negative
mutagenic call (Test System: E. COLI, Strain/Indicator: WP2 UVRA, Metabolic Activation: NONE, Method: PREINCUBATION): inactive; negative
mutagenic call (Test System: E. COLI, Strain/Indicator: WP2 UVRA, Metabolic Activation: RAT, LIVER, S-9, SODIUM PHENOBARBITAL AND 5,6-BENZOFLAVONE, Method: PREINCUBATION): inactive; negative

c1cncc(C2=NCCC2)c1
mutagenic call (End Point: Lymphocytes, Strain/Indicator: Human (male and female) (HPRT)/6-Thioguanine, Metabolic Activation: None): active; positive (p=0.038)

C[C@@H]1O[C@H]1C
mutagenic call (Test System: AMES SALMONELLA TYPHIMURIUM, Strain/Indicator: TA100, Metabolic Activation: NONE, Method: FLASK VAPORIZATION): active; positive
mutagenic call [2]: active; positive
mutagenic call (Test System: AMES SALMONELLA TYPHIMURIUM, Strain/Indicator: TA100, Metabolic Activation: RAT, LIVER, S-9, AROCLOR 1254, Method: FLASK VAPORIZATION): active; positive
mutagenic call (Test System: AMES SALMONELLA TYPHIMURIUM, Strain/Indicator: TA1535, Metabolic Activation: NONE, Method: FLASK VAPORIZATION): active; positive
mutagenic call (Test System: AMES SALMONELLA TYPHIMURIUM, Strain/Indicator: TA1535, Metabolic Activation: NONE, Method: STANDARD PLATE): active; positive
mutagenic call (Test System: AMES SALMONELLA TYPHIMURIUM, Strain/Indicator: TA1535, Metabolic Activation: RAT, LIVER, S-9, AROCLOR 1254, Method: FLASK VAPORIZATION): active; positive

N=C1C=CC2=C(S(=O)(=O)O)C=CC(=O)C2=C1NNc1ccc(-c2ccc(NNC3=C4C(=O)C=CC(S(=O)(=O)O)=C4C=CC3=N)cc2)cc1
mutagenic call [3]: active; positive

O=[N+]([O-])c1ccc2ccc3cccc4c(O)cc1c2c34
mutagenic call [1]: active; positive
mutagenic call (Test System: AMES SALMONELLA TYPHIMURIUM, Strain/Indicator: TA98, Metabolic Activation: RAT, LIVER, S-9, AROCLOR 1254, Method: STANDARD PLATE): active; positive
